Entries after “also recorded” stand apart in the source; their conditions may differ.
Assays:
Stability at low pH = format: physicochemical
[1] = Solubility of the cross-linker complex in solvents; format: physicochemical
Text: The cross-linker species of the present invention has been characterized by a combination of analytical and spectroscopic techniques. […] The complex is quite soluble in DMSO, although a warning has been issued concerning the compositions of DMSO solutions of cisplatin derivatives (Sundquist, 1987). The proton NMR spectrum of the complex in d7-DMF is poorly resolved, and the resonances due to the residual protons in the deuterated solvent tend to obscure parts of the spectrum of the complex.
This appears to be an effect of particle size on dissolution rate, since no differences can be discerned in the infrared spectra of the complex before or after this treatment. In particular there is no evidence for coordinated DMSO in the region 1000-1200 cm-^1.

MerR protein = target: T1, MerR protein (Pseudomonas aeruginosa, UniProt P0A183); experiment: In vitro DNA-protein crosslinking assay (gel mobility shift), MerR; format: biochemical; settings: MerR and DNA fragment bearing its recognition sequence
T1 construct: made in house
T1 sequence (P0A183 whole entry, the tested form may be a part): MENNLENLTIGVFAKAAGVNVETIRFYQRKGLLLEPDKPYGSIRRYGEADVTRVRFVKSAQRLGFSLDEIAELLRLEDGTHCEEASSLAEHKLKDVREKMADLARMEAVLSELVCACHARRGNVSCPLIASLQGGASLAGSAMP
Method: FIGS. 8-11: In vitro assay for crosslinking of proteins to DNA by 5-Chloromercuri-1,2-pentanediamine)dichloro platinum(II). Lane 1:4.5 pM DNA, 500 cpm Lane 2: DNA+460 pM MerR dimer Lane 3: DNA+protein+2.4 nM unlabeled competitor DNA Lane 4: DNA+protein+25 mM KCN Lane 5:DNA-protein complex treated with 10 mM 1 prior to competition. Lane 6: DNA-protein complex treated with 2 mM 1 prior to competition. Lane 7: DNA-protein complex treated with 0.4 mM crosslinker prior to competition Lanes 8-10: Reactions as for lane 5-7, pretreated with 25 mM KCN prior to competition. (Grant)
(§1) (Pried & Crothers, 1981; Garner & Revsin, 1981).
Proteins and DNA Probes. TFIIIA from Xenopus Borealis was provided by T. Tullius (Johns Hopkins University) and A. Wolffe (NIH). Fur was purified based on the method of Neilands and coworkers. MerR extract was obtained and quantified as described (O'Halloran, 1989). DNA probes used in TFIIIA, Fur, and MerR gel mobility shift assays were derived from plasmids pXBS201 (obtained from T. Tullius), pGMer and pBIB, respectively. […] DNA concentrations were determined by optical density at 260 nm by using a molar extinction coefficient of 1.3×10^4 per nucleotide pair. […]

[2] = Kinetics of the reaction of the complex with DMSO (UV spectroscopy); format: physicochemical; settings: room temperature; in accord with published rate data for cis-Pt(NH3)2Cl2
Method: ^1 H, ^13 C, ^195 Pt and ^199 Hg NMR spectra were recorded on a Varian VXR-400 Fourier Transform spectrometer, operating at 399.95 MHZ (^1 H), […] (^13 C), 85.736 MHz (^195 Pt), and 71.600 MHz (^199 Hg). Standard acquisition parameter files were used for the accumulation of ^1 H and ^13 C spectra. For ^195 Pt NMR, a spectral window of 50 KHz was used, with a pulse width of 30 μsec, and a pulse delay of 100 μsec. Broadband proton decoupling was employed during acquisition of the spectra. ^195 Pt spectra were referenced externally using a 0.1M aqueous solution of K2 PtCl4 in 0.1M KCl. Chemical shifts are reported relative to K2 PtCl6 =0 ppm. (δK2 PtCl4 =[…]). Proton-decoupled ^199 Hg NMR spectra were recorded using a spectral window of 30 KHz, a pulse width of 30 μsec, and a pulse delay of 100 μsec. Chemical shifts are reported relative to external Hg(CH3)2 (0 ppm). Mass spectra were recorded using a VG instruments VG70-250 S/SE instrument. Infrared spectra were recorded using either a Perkin-Elmer PE-283 or a Mattson Alpha Centauri FTIR spectrometer. UV spectra were obtained using a Hewlett-Packard HP8452 spectrophotometer running off of an IBM-AT personal computer. Kinetic measurements were controlled using the Hewlett-Packard Multicell Kinetics Module. Data manipulation and plotting was performed using the program Igor^24 running on a Macintosh IIx personal computer. […]

[3] = system: radiolabelled DNA fragment; experiment: DNA-binding assay: electrophoretic mobility shift of a radiolabelled DNA fragment on polyacrylamide gel; settings: for DNA mobility shift with increasing concentrations: polyacrylamide gel electrophoresis of radiolabelled DNA fragment
Text: The assay used to determine the DNA-binding activity of the complexes is based on the assays developed by Lippard and coworkers for assaying the extent of DNA binding by cis-DDP, in which the electrophoretic mobility of a DNA molecule is altered by binding of the drug (Sundquist, 1990). Charge neutralization and DNA bending caused by binding of the divalent metal complex have been invoked to explain the observed mobility shift.

TFIIIA = target: T2, TFIIIA (Xenopus borealis, UniProt P17842); experiment: In vitro DNA-protein crosslinking assay (gel mobility shift), TFIIIA; format: biochemical; settings: zinc finger transcription factor TFIIIA and DNA fragment bearing its recognition sequence
T2 sequence (P17842 1-339): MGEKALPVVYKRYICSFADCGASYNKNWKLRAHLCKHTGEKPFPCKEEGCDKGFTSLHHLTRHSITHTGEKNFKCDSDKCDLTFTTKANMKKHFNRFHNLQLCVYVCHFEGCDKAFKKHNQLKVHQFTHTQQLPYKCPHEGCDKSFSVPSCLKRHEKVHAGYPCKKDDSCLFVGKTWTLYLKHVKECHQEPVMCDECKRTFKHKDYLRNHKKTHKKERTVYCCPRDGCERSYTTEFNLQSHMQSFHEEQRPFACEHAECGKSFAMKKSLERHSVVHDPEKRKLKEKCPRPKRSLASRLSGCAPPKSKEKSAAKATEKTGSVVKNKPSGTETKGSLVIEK
Text: as §1
(§2) Proteins and DNA Probes. TFIIIA from Xenopus Borealis was provided by T. Tullius (Johns Hopkins University) and A. Wolffe (NIH). Fur was purified based on the method of Neilands and coworkers. MerR extract was obtained and quantified as described (O'Halloran, 1989). DNA probes used in TFIIIA, Fur, and MerR gel mobility shift assays were derived from plasmids pXBS201 (obtained from T. Tullius), pGMer and pBIB, respectively. The 249-bp BamHI-HindIII fragment from pXBS201, 309-bp XhoI-PvuII fragment from pBIB and 411-bp BssHII-BssHII fragment from pGMer are labeled with [α-^32 P]dNTPs (Amersham) by the Klenow fragment of DNA polymerase (Bethesda Research Laboratories). The labeled fragments are then isolated and purified by gel electrophoresis. DNA concentrations were determined by optical density at 260 nm by using a molar extinction coefficient of 1.3×10^4 per nucleotide pair.
(§3) Crosslinking Activity Assay. DNA-protein-crosslinker are incubated in 20 μl (final volume) of binding buffer. The buffer for TFIIIA and MerR extract reaction is 20 mM Hepes [pH 7.5], 50 mM K2 SO4, 10 μMZnsO4, 3 mM MgCl2, 10% glycerol and 70 μg/ml Albumin, Bovine-carboxymethyl [c-BSA] (Sigma). The Fur incubation buffer is 20 mM Bis-Tris/Borate [pH 7.0], 50 mM K2 SO4, 5% glycerol, 1 mM MgCl2, 5 μG/ml salmon sperm DNA and 100 μg/ml c-BSA. […]

Fur = target: T3, Fur (Escherichia coli, UniProt P0A9A9); experiment: In vitro DNA-protein crosslinking assay (gel mobility shift), Fur; format: biochemical; settings: Fur and DNA fragment bearing its recognition sequence
T3 construct: made in house
T3 sequence (P0A9A9 2-148): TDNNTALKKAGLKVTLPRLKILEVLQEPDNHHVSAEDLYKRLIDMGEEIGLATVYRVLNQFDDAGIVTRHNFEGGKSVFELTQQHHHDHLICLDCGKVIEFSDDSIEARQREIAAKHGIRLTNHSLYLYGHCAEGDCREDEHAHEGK
Text: as §1, §2, §3

[4] = cited from earlier work

Compound | induction of DNA-protein cross-links, MerR (MerR protein) | binding to DNA [3] | DNA mobility shift with increasing concentrations [3] | induction of DNA-protein cross-links, TFIIIA (TFIIIA) | induction of DNA-protein cross-links, Fur (Fur) | toxicity in phase I trials [4] | further results
5-Chloromercuri-1,2-pentanediamine)dichloro platinum(II) [Merplatin] | can efficiently induce DNA-protein cross-links | bind avidly to DNA | saturation binding curve which is identical in form with a curve obtained by incubation of DNA with PtenCl2 | can efficiently induce DNA-protein cross-links | can efficiently induce DNA-protein cross-links | – | stability at low pH (Stability at low pH): stable at low pH; solubility in DMSO ([1]; DMSO): quite soluble; solubility in NMP after reprecipitation ([1]; NMP, after dissolution in DMSO and immediate precipitation with ethanol): readily soluble; solubility in amide solvents ([1]; dimethylformamide or 1-methylpyrrolidinone (NMP), complex as prepared in Example 1): limited solubility; also recorded: dissolves sparingly; concentration of solutions that can be prepared in amide solvents ([1]; dimethylformamide or NMP, complex as prepared in Example 1): ~ 10 mM; solubility in water and most organic solvents ([1]; water and most organic solvents, listed as complex): limited solubility; also recorded: low solubility; half-life of reaction with DMSO [2]: approximately 3 hours
[CH3][Hg][Cl] [MeHgCl] | – | – | does not exhibit a mobility shift at all | – | – | – | –
NCCN.[Cl][Pt][Cl] [PtenCl2] | – | – | saturation binding curve | – | – | – | –
N.N.[Cl][Pt][Cl] [cisplatin, cis-dicholorodiammineplatinum(II), reference compound] | only the latter reagent can efficiently induce DNA-protein cross-links | bind avidly to DNA | – | only the latter reagent can efficiently induce DNA-protein cross-links | only the latter reagent can efficiently induce DNA-protein cross-links | – | –
NCC1(CN)CCOCC1.O=C([O-])C1(C(=O)[O-])CCC1.[Pt+2] [enloplatin] | – | – | – | – | – | caused nephrotoxicity | –
O=C([O-])C1(C(=O)[O-])CCC1.[NH-]CC(C[NH-])(CO)CO.[Pt+4] [zeniplatin] | – | – | – | – | – | caused nephrotoxicity | –

Source: US5534542A, “Methods and materials relating to a bi-metallic cross-linking species” (priority 1994, dated 1996)
